{"source": "patent US20110092367A1", "about": "“Herbicidal Compositions Comprising 4-amino-3,6-dichloropyridine-2-carboxylic Acid” (BASF SE, priority 2008, published 2011)", "format_in_all_cases": "in vivo", "key": {"Centauria cyanus": {"test_system": "Centauria cyanus", "test": "Greenhouse trial, post-emergence: CENCY", "conditions": "post-emergence; for % activity 28 DAT: CENCY", "method": "(§1) The test plants have been seeded, separately for each species, in plastic containers in sandy loamy soil containing 5% organic matter.\n(§2) For the post emergence treatment, the plants were first grown to the 2 leaf station (GS 12). Here, the herbicidal compositions were suspended or emulsified in water as distribution medium and sprayed using finely distributing nozzels.\n(§3) The plants have been cultivated due to there individual requirements at 10-25° C. and 20-35° C. The plants were irrigated due to there necessity. […]\n(§4) The evaluation for the damage on undesired weeds caused by the chemical compositions was carried out using a scale from 0 to 100%, compared to the untreated control plants. Here, 0 means no damage and 100 means complete destruction of the plants.\n(§5) Calculation of expected activity of binary mixtures was done by using the Colby-Formula according to Example 1."}, "Mercurialis annua": {"test_system": "Mercurialis annua", "test": "Greenhouse trial, post-emergence: MERAN", "conditions": "for % activity 28 DAT: MERAN", "method": "as §1, §2, §3, §4, §5"}, "Lamium purpureum": {"test_system": "Lamium purpureum", "test": "Greenhouse trial, post-emergence: LAMPU", "conditions": "for % activity 28 DAT: LAMPU", "method": "as §1, §2, §3, §4, §5"}, "Capsella bursa-pasturis": {"test_system": "Capsella bursa-pasturis", "test": "Greenhouse trial, post-emergence: CAPBP", "conditions": "post-emergence (Table 10)", "method": "as §1, §2, §3, §4, §5"}, "Papaver rhoeas [1]": {"test_system": "Papaver rhoeas", "test": "Greenhouse trial, post-emergence: PAPRH", "method": "as §1, §2, §3, §4, §5"}, "Stellaria media [2]": {"test_system": "Stellaria media", "test": "Greenhouse trial, post-emergence: STEME", "conditions": "flufenacet 60 g ai/ha solo, post-emergence", "method": "as §1, §2, §3, §4, §5"}, "Matricaria chamomilla": {"test_system": "Matricaria chamomilla", "test": "Greenhouse trial, post-emergence: MATCH", "conditions": "solo, 187 g ai/ha, greenhouse", "method": "as §1, §2\nThe plants have been cultivated due to there individual requirements at 10-25° C. and 20-35° C. The plants were irrigated due to there necessity.\nIn the following experiments, the herbicidal activity for the individual herbicide compounds (solo and mixture applications), the herbicidal succession was assessed 14 days after treatment (DAT).\nas §4, §5\nE=(X+Y+Z)−(X*Y+X*Z+Y*Z/100)+(X*Y*Z/1000)\nTables 6 to 10 relate to the herbicidal activity, in greenhouse trials, of the individual actives and the combination in post-emergence application 14 DAT."}, "Centaurea cyanus": {"test_system": "Centaurea cyanus", "test": "Field trial Example 2, combined application: CENCY", "conditions": "Metazachlor 375 g ai/ha solo, 78 DAT", "method": "(§6) Aminiopyralid was used as commercial aquaeous solution having an active ingredient concentration of 240 g/l (Milestone™). Metazachlor was used as a commercial suspension concentrate having an active ingredient concentration of 500 g/l (Butisan S®).\nas §4\n(§7) The value E, which is to be expected if the activity of the individual compounds is just additive, was calculated using the method of S. R. Colby (1967) “Calculating synergistic and antagonistic responses of herbicide combinations”, Weeds 15, p. 22 ff.\n(§8) The performance of aminopyralid, applied as an alone treatment at […] and 15 g ai/ha, and the performance of metazachlor, applied as an alone treatment at 375 and 500 g ai/ha, as well as the mixtures of the both compounds have been assessed in winter oilseed rape field trials. The trials have been conducted in Germany at two locations.\n(§9) Post emergence treatment was applied by means of fine distributed nozzels at the growth stage (GS/BBCH 11/12)."}, "Stellaria media [3]": {"test_system": "Stellaria media", "test": "Field trial Example 2, combined application: STEME", "conditions": "Metazachlor 500 g ai/ha solo, 28 DAT", "method": "as §6, §4, §7, §8, §9"}, "Alopecurus myosuroides": {"test_system": "Alopecurus myosuroides", "test": "Field trial Example 2, combined application: ALOMY", "conditions": "Metazachlor 500 g ai/ha solo, 28 DAT", "method": "as §6, §4, §7, §8, §9"}, "Anthemis arvensis": {"test_system": "Anthemis arvensis", "test": "Field trial Example 2, combined application: ANTAR", "method": "as §6, §4, §7, §8, §9"}, "Matricaria inodora": {"test_system": "Matricaria inodora", "test": "Field trial Example 2, combined application: MATIN", "method": "as §6, §4, §7, §8, §9"}, "Papaver rhoeas [4]": {"test_system": "Papaver rhoeas", "test": "Field trial Example 2, combined application: PAPRH", "method": "as §6, §4, §7, §8, §9"}, "[5]": {"conditions": "clopyralid 60 g ai/ha solo, post-emergence (Table 10)"}, "[6]": {"conditions": "clopyralid 120 g ai/ha solo, post-emergence (Table 10)"}, "[7]": {"conditions": "metazachlor 187 g ai/ha solo, post-emergence (Table 10)"}, "[8]": {"conditions": "metazachlor 375 g ai/ha solo, post-emergence (Table 10)"}, "[9]": {"conditions": "Metazachlor 375 g ai/ha solo, 29 DAT"}, "[10]": {"conditions": "Metazachlor 500 g ai/ha solo, 29 DAT"}, "[11]": {"conditions": "Metazachlor 375 g ai/ha solo, 28 DAT"}, "[12]": {"conditions": "pethoxamid 600 g ai/ha solo, post-emergence"}}}
{"smiles": "COC[C@H](C)N(C(=O)CCl)c1c(C)csc1C", "note": "[DMTA-P, Dimethenamid-P]", "values": [{"measurement": "% activity 28 DAT", "setting": "Centauria cyanus; DMTA-P 125 g ai/ha solo", "value": 20, "unit": "%"}, {"measurement": "% activity 28 DAT", "setting": "Mercurialis annua; DMTA-P 63 g ai/ha solo, post-emergence", "value": 15, "unit": "%"}, {"measurement": "% activity 28 DAT", "setting": "Mercurialis annua; DMTA-P 125 g ai/ha solo, post-emergence", "value": 25, "unit": "%"}]}
{"smiles": "O=C(O)c1nc(Cl)ccc1Cl", "note": "[clopyralid]", "values": [{"measurement": "% activity 28 DAT", "setting": "Lamium purpureum; [5]", "value": 15, "unit": "%"}, {"measurement": "% activity 28 DAT", "setting": "Lamium purpureum; [6]", "value": 15, "unit": "%"}, {"measurement": "% activity 28 DAT", "setting": "Mercurialis annua; [5]", "value": 15, "unit": "%"}, {"measurement": "% activity 28 DAT", "setting": "Capsella bursa-pasturis; clopyralid 120 g ai/ha solo", "value": 10, "unit": "%"}, {"measurement": "% activity 28 DAT", "setting": "Papaver rhoeas [1]; [6]", "value": 20, "unit": "%"}]}
{"smiles": "CC(C)N(C(=O)COc1nnc(C(F)(F)F)s1)c1ccc(F)cc1", "note": "[flufenacet]", "values": [{"measurement": "% activity 28 DAT", "setting": "Centauria cyanus; flufenacet 60 g ai/ha solo", "value": 0, "unit": "%"}, {"measurement": "% activity 28 DAT", "setting": "Centauria cyanus; flufenacet 120 g ai/ha solo", "value": 20, "unit": "%"}, {"measurement": "% activity 28 DAT", "setting": "Lamium purpureum; flufenacet 60 g ai/ha solo, post-emergence", "value": 60, "unit": "%"}, {"measurement": "% activity 28 DAT", "setting": "Lamium purpureum; flufenacet 120 g ai/ha solo, post-emergence", "value": 60, "unit": "%"}, {"measurement": "% activity 28 DAT", "setting": "Stellaria media [2]", "value": 0, "unit": "%"}]}
{"smiles": "Cc1cccc(C)c1N(Cn1cccn1)C(=O)CCl", "note": "[metazachlor]", "values": [{"measurement": "inhibition at 187 g/ha", "setting": "Centauria cyanus; 672 h, solo, 187 g ai/ha, greenhouse, 28 DAT", "value": 20, "unit": "%"}, {"measurement": "inhibition at 187 g/ha", "setting": "Matricaria chamomilla", "value": 10, "unit": "%"}, {"measurement": "% activity", "setting": "Centaurea cyanus", "value": 32, "unit": "%"}, {"measurement": "% activity 28 DAT", "setting": "Lamium purpureum; [7]", "value": 75, "unit": "%"}, {"measurement": "% activity 28 DAT", "setting": "Lamium purpureum; [8]", "value": 75, "unit": "%"}, {"measurement": "inhibition at 187 g/ha", "setting": "Lamium purpureum; Lamium purpureum, 672 h, solo, 187 g ai/ha, post-emergence, greenhouse, 28 DAT", "value": 75, "unit": "%"}, {"measurement": "% activity", "setting": "Stellaria media [3]", "value": 88, "unit": "%"}, {"measurement": "% activity 28 DAT", "setting": "Mercurialis annua; [7]", "value": 15, "unit": "%"}, {"measurement": "inhibition at 187 g/ha", "setting": "Mercurialis annua; Mercurialis annua, 672 h, solo, 187 g ai/ha, post-emergence, greenhouse, 28 DAT", "value": 15, "unit": "%"}, {"measurement": "% activity 28 DAT", "setting": "Capsella bursa-pasturis; metazachlor 375 g ai/ha solo", "value": 25, "unit": "%"}, {"measurement": "% activity", "setting": "Alopecurus myosuroides", "value": 82, "unit": "%"}, {"measurement": "% activity 28 DAT", "setting": "Papaver rhoeas [1]; [8]", "value": 30, "unit": "%"}, {"measurement": "% activity", "setting": "Anthemis arvensis; [9]", "value": 40, "unit": "%"}, {"measurement": "% activity", "setting": "Anthemis arvensis; [10]", "value": 57, "unit": "%"}, {"measurement": "% activity", "setting": "Anthemis arvensis; Metazachlor 500 g ai/ha solo, 78 DAT", "value": 60, "unit": "%"}, {"measurement": "% activity", "setting": "Matricaria inodora; [11]", "value": 42, "unit": "%"}, {"measurement": "% activity", "setting": "Matricaria inodora; [9]", "value": 88, "unit": "%"}, {"measurement": "% activity", "setting": "Matricaria inodora; Metazachlor 500 g ai/ha solo, 28 DAT", "value": 67, "unit": "%"}, {"measurement": "% activity", "setting": "Papaver rhoeas [4]; [11]", "value": 50, "unit": "%"}, {"measurement": "% activity", "setting": "Papaver rhoeas [4]; [9]", "value": 55, "unit": "%"}, {"measurement": "% activity", "setting": "Papaver rhoeas [4]; Metazachlor 375 g ai/ha solo, 72 DAT", "value": 53, "unit": "%"}, {"measurement": "% activity", "setting": "Papaver rhoeas [4]; Metazachlor 375 g ai/ha solo, 78 DAT", "value": 55, "unit": "%"}, {"measurement": "% activity", "setting": "Papaver rhoeas [4]; [10]", "value": 75, "unit": "%"}]}
{"smiles": "CCOCCN(C(=O)CCl)C(=C(C)C)c1ccccc1", "note": "[pethoxamid]", "values": [{"measurement": "% activity 28 DAT", "setting": "Centauria cyanus; pethoxamid 150 g ai/ha solo", "value": 0, "unit": "%"}, {"measurement": "% activity 28 DAT", "setting": "Centauria cyanus; pethoxamid 300 g ai/ha solo", "value": 25, "unit": "%"}, {"measurement": "% activity 28 DAT", "setting": "Centauria cyanus; pethoxamid 600 g ai/ha solo", "value": 30, "unit": "%"}, {"measurement": "% activity 28 DAT", "setting": "Mercurialis annua; pethoxamid 150 g ai/ha solo, post-emergence", "value": 0, "unit": "%"}, {"measurement": "% activity 28 DAT", "setting": "Mercurialis annua; pethoxamid 300 g ai/ha solo, post-emergence", "value": 0, "unit": "%"}, {"measurement": "% activity 28 DAT", "setting": "Mercurialis annua; [12]", "value": 10, "unit": "%"}, {"measurement": "% activity 28 DAT", "setting": "Papaver rhoeas [1]; [12]", "value": 25, "unit": "%"}]}
